Earlier results in US9375001B1, “Granular fly bait” (Wellmark International, priority 2012, dated 2016).
Read-outs that look alike come from different tables or passages of the source.

In the case of `OC[C@H]1O[C@@](CO)(O[C@H]2O[C@H](CO)[C@@H](O)[C@H](O)[C@H]2O)[C@@H](O)[C@@H]1O` [Sucrose], the “Solubility of Sucrose in Water, Sucrose/water” value (from here on “Solubility … Sucrose/water”) (50 ° C.) is listed as 2.59 wt/wt, the “Solubility … Sucrose/water” value (55 ° C.) is listed as 2.73 wt/wt and the “Solubility … Sucrose/water” value (60 ° C.) is listed as 2.89 wt/wt. For the same compound, the “Solubility … Sucrose/water” value (65 ° C.) was 3.06 wt/wt, the “Solubility … Sucrose/water” value (70 ° C.) was 3.25 wt/wt and the “Solubility … Sucrose/water” value (75 ° C.) was 3.46 wt/wt. For the same compound, the “Solubility … Sucrose/water” value (80 ° C.) was 3.69 wt/wt, the “Solubility … Sucrose/water” value (85 ° C.) was 3.94 wt/wt and the “Solubility … Sucrose/water” value (90 ° C.) was 4.20 wt/wt.
